≈ marks a conversion by molar mass, not a printed value. Where two headings read alike, the source gives them in different places.
How the values were obtained:
[1] = target: T1, IMP-1 (Serratia marcescens, UniProt P52699); format: binding; conditions: DSF; control protein 52.5°C
T1 construct: made in house
Method: The DSF assay was performed using the Protein Thermal Shift Dye Kit (Thermo Fisher Scientific) and StepOnePlus Real-Time PCR Systems (Applied Biosystems) as follows: 2 µL of IMP-1 enzyme (100 µM), 1 µL of EDTA or HHIA solution (5 mM), 2.5 µL of diluted Protein Thermal Shift Dye (32×), 5 µL of Protein Thermal Shift buffer, and 9.5 µL of water were mixed in a test tube and incubated for 15 min at 4°C. Four replicates of each sample were performed. The fluorescence was monitored at 0.7°C increments from 4°C to 99°C. The relative fluorescence units were fitted with the Boltzmann equation using the TSA-CRAFT software to determine the melting point (Tm) ([47]).

[2] = system: IMP-1-producing E. coli NUBL-24; assay: Time-killing assay; format: cell-based; conditions: 12-h incubation; for Time-kill: effect on growth, HHIA alone: 50 µg/mL alone; for Time-kill: MPM-HHIA combination: MPM 1 µg/mL + HHIA 50 µg/mL
Method: The initial density of IMP-1-producing E. coli NUBL-24 (MPM MIC, 8 µg/mL) was adjusted to approximately 5 × 10^6 colony-forming units (cfu)/mL. Either MPM (1 µg/mL) or 9-HHIA/10-HHIA (50 µg/mL) alone or a combination of the two was added to the bacterial solution, and then incubation was performed at 37°C. LB broth containing bacteria alone was used as a control. At 0, 2, 4, 8, and 12 h after adding the agents, an aliquot of the bacterial culture was removed, diluted, and spotted on LB agar plates to count the viable bacterial cells. The detection limit was set at 333 cfu/mL.

[3] = system: K. pneumoniae NUBL-8 (IMP-1); assay: Susceptibility test, clinical isolate; format: cell-based; conditions: Klebsiella pneumoniae
Method: (§1) Susceptibility testing, based on the microdilution method, was performed according to the guidelines of the Clinical and Laboratory Standards Institute ([36]).

[4] = system: E. coli 426 (IMP-1); assay: Susceptibility test, clinical isolate; format: cell-based; conditions: Escherichia coli
Method: as §1

[5] = system: K. oxytoca NUBL-827 (IMP-1); assay: Susceptibility test, clinical isolate; format: cell-based; conditions: Klebsiella oxytoca
Method: as §1

[6] = +HHIA 6.25 µg/mL, read-out: IPM MIC
[7] = +HHIA 6.25 μg/mL, read-out: MPM MIC
[8] = +HHIA 25 µg/mL, read-out: IPM MIC
[9] = +HHIA 25 μg/mL, read-out: MPM MIC
[10] = +HHIA 100 µg/mL, read-out: IPM MIC
[11] = +HHIA 100 μg/mL, read-out: MPM MIC

T1 sequence (P52699 19-246, looked up, species assumed): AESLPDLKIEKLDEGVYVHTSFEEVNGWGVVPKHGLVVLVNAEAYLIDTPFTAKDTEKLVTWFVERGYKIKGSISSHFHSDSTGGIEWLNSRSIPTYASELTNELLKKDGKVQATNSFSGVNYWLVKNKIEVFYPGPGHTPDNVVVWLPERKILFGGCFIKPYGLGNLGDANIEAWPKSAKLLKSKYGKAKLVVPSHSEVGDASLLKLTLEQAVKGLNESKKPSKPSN

SMILES	Melting temperature (Tm) of treated IMP-1 [1]	Time-kill: effect on growth, HHIA alone [2]	Time-kill: MPM-HHIA combination [2]	MIC [3, 6]	MIC [3, 7]	MIC [3, 8]	MIC [3, 9]	MIC [3, 10]	MIC [3, 11]	MIC [4, 6]	MIC [4, 7]	MIC [4, 8]	MIC [4, 9]	MIC [4, 10]	MIC [4, 11]	MIC [5, 6]	MIC [5, 7]	MIC [5, 8]	MIC [5, 9]	MIC [5, 10]	other results
C=C(C(=O)O)C(CCCCCCO)C(=O)O (stereo not drawn) [10-HHIA, 10-hydroxyhexylitaconic acid]	55.6 °C	did not affect the growth	did not permit the re-growth	2 µg/mL (≈ 8.69 µM)	8 µg/mL (≈ 34.7 µM)	1 µg/mL (≈ 4.34 µM)	2 µg/mL (≈ 8.69 µM)	0.5 µg/mL (≈ 2.17 µM)	0.25 µg/mL (≈ 1.09 µM)	8 µg/mL (≈ 34.7 µM)	8 µg/mL (≈ 34.7 µM)	4 µg/mL (≈ 17.4 µM)	1 µg/mL (≈ 4.34 µM)	2 µg/mL (≈ 8.69 µM)	0.25 µg/mL (≈ 1.09 µM)	8 µg/mL (≈ 34.7 µM)	16 µg/mL (≈ 69.5 µM)	4 µg/mL (≈ 17.4 µM)	8 µg/mL (≈ 34.7 µM)	2 µg/mL (≈ 8.69 µM)	MIC [5, 11]: 1 µg/mL (≈ 4.34 µM)
C=C(C(=O)O)C(CCCCC(C)O)C(=O)O (stereo not drawn) [9-HHIA, 9-hydroxyhexylitaconic acid]	54.9 °C	did not affect the growth	did not permit the re-growth	2 µg/mL (≈ 8.69 µM)	16 µg/mL (≈ 69.5 µM)	4 µg/mL (≈ 17.4 µM)	4 µg/mL (≈ 17.4 µM)	1 µg/mL (≈ 4.34 µM)	0.5 µg/mL (≈ 2.17 µM)	8 µg/mL (≈ 34.7 µM)	8 µg/mL (≈ 34.7 µM)	4 µg/mL (≈ 17.4 µM)	4 µg/mL (≈ 17.4 µM)	2 µg/mL (≈ 8.69 µM)	0.25 µg/mL (≈ 1.09 µM)	8 µg/mL (≈ 34.7 µM)	32 µg/mL (≈ 139 µM)	4 µg/mL (≈ 17.4 µM)	16 µg/mL (≈ 69.5 µM)	2 µg/mL (≈ 8.69 µM)	MIC [5, 11]: 4 µg/mL (≈ 17.4 µM)

Source: article PMC10913484, “Hydroxyhexylitaconic acids as potent IMP-type metallo-β-lactamase inhibitors for controlling carbapenem resistance in Enterobacterales” (Microbiology Spectrum, 2024)
